# Square brackets hold non-standard residues; d marks the D form. Ends that are not written are not given here. Peptide text beside a SMILES is read from it. Phe(4-CH2NH2) = NCc1ccc(C[C@H](N)C(=O)O)cc1; hArg = N=C(N)NCCCC[C@H](N)C(=O)O; Cit = NC(=O)NCCC[C@H](N)C(=O)O; Agb = N=C(N)NCC[C@H](N)C(=O)O; Agp = N=C(N)NC[C@H](N)C(=O)O; Dab = NCC[C@H](N)C(=O)O; Dap = NC[C@H](N)C(=O)O
# Tested on: recombinant rat NRP-1/Fc chimera
# Assay: not given
# Parameters: method as in Starzec et al. 2007
# Settings: 125I-VEGF, ref Starzec et al. 2007; cited from earlier work
row,Compound,inhibition at 100 μM [%]
1,Ala-Thr-Trp-Leu-Pro-Pro-Lys7-Ala8 (ATWLPPK; C-terminal Ala8; printed: Ala-Thr-Trp-Leu-Pro-Pro-Lys) [Compound D5],18
2,Ala-Thr-Trp-Leu-Pro-Pro6 (ATWLPP; printed: Ala-Thr-Trp-Leu-Pro-Pro) [Compound D2],18
3,Ala-Thr-Trp-Leu-Pro-Pro-Ala7 (ATWLPPA; printed: Ala-Thr-Trp-Leu-Pro-Pro-Ala) [Compound D3],17
4,Ala-Thr-Trp-Leu-Pro-Pro-Lys7 (ATWLPPK; printed: Ala-Thr-Trp-Leu-Pro-Pro-Lys) [Compound D4],20

# Molecular target: T1, VEGF-A165/NRP-1 complex (Homo sapiens, UniProt O14786)
# T1 construct: purchased BioLegend (NRP-1); Abcam (biotinylated VEGF-A165)
# T1 sequence (O14786 22-641 limits assumed): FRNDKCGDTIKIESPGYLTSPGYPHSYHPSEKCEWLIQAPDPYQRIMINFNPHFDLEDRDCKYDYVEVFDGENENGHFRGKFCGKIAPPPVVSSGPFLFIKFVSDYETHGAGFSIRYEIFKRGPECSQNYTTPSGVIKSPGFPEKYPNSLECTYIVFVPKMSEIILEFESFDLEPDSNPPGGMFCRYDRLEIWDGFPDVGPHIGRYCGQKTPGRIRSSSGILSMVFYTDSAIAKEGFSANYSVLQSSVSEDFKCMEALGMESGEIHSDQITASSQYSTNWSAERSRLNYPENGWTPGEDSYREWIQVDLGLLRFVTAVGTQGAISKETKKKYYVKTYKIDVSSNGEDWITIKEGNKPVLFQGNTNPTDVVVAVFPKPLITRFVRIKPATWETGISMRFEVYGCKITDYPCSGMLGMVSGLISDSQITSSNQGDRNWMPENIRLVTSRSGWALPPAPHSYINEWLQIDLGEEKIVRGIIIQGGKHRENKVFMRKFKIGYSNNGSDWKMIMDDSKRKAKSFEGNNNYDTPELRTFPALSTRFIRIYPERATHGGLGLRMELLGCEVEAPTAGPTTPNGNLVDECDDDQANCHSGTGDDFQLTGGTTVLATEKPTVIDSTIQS
# Assay: competitive ELISA: inhibition of (bt)-VEGF-A165 binding to NRP-1
# Settings: recombinant human NRP-1; mean ± SD of three independent experiments; tested in the concentrations range 100–3.12 μM
# Experimental: Inhibitory activity of the synthesized peptides was measured by a competitive ELISA test, following a protocol similar to the one previously described (Puszko et al. [2019]). […] Nonspecific binding was blocked with 0.5% BSA (BioShop, Canada) in PBS (Bioshop, Canada). Then, 50 μl peptide in PBS in the selected concentrations and 50 μl (400 ng/ml) human […] VEGF-A165 (Abcam, Cambridge, UK) in PBS containing 4 μg/ml heparin (Bioshop, Canada) were added. After 2 h of incubation at RT, the plate was washed and treated with ECL Streptavidin-Horseradish Peroxidase conjugate (GE Healthcare, Little Chalfont, UK) in PBS (1:100) for 45 min. After the final wash the chemiluminescence was quantified immediately after addition of 100 μl chemiluminescent substrate (SuperSignal ELISA Pico Chemiluminescent Substrate; Pierce Biotechnology, Rockford, IL, USA). Wells incubated with (bt)-VEGF-A165 served as a positive control (P), while wells not-coated with NRP-1 were used as a negative control (NS). […] Half-maximal inhibitory concentration (IC50, [μM]) values (mean ± SD of three independent experiments were determined by nonlinear regression analysis (log(inhibitor) vs. normalized response-variable slope) generated in GraphPad Prism 9.0.0 program (Graph Pad, San Diego, CA, USA). In order to verify the accuracy of the design assumptions, a modified competitive enzyme-linked immunosorbent assay (ELISA) was used to evaluate the inhibitory activity of the designed peptidomimetics against VEGF-A165/NRP-1 complex formation. In addition to the parent compounds (1 and 2), heptapeptide […] was used for the sake of comparison.
row,IC50 [µM],Compound
1,11.3 ± 3.2,"ATWLPPR [Compound A7R, Ala-Thr-Trp-Leu-Pro-Pro-Arg]"
2,4.7 ± 0.6,"N=C(N)NCCCC[C@H](N)C(=O)NCCCC[C@H](N)C(=O)N[C@@H](CCN)C(=O)N1CCC[C@H]1C(=O)N[C@@H](CCCNC(=N)N)C(=O)O [Compound 2, Lys(Har)-Dab-Pro-Arg] (H-K(hArg)[Dab]PR-OH)"
3,193 ± 20.6,"N=C(N)NCCCC[C@H](N)C(=O)NCCCC[C@H](N)C(=O)N[C@@H](CCN)C(=O)N1CCC[C@H]1C(=O)N[C@@H](CCCNC(N)=O)C(=O)O [Compound 10, Lys(Har)-Dab-Pro-Cit] (H-K(hArg)[Dab]P[Cit]-OH)"
4,14.3 ± 2.3,"N=C(N)NCCCC[C@H](NC(=O)[C@@H]1CCCN1C(=O)[C@H](CCN)NC(=O)[C@@H](N)CCCCNC(=O)[C@@H](N)CCCCNC(=N)N)C(=O)O [Compound 4, Lys(Har)-Dab-Pro-Har] (H-K(hArg)[Dab]P[hArg]-OH)"
5,170 ± 55.6,"N=C(N)NCCCC[C@H](N)C(=O)NCCCC[C@H](N)C(=O)N[C@@H](CN)C(=O)N1CCC[C@H]1C(=O)N[C@@H](CCCNC(N)=O)C(=O)O [Compound 9, Lys(Har)-Dap-Pro-Cit] (H-K(hArg)[Dap]P[Cit]-OH)"
6,19.8 ± 1.8,"N=C(N)NCCCC[C@H](N)C(=O)NCCCC[C@H](N)C(=O)N[C@@H](CCN)C(=O)N1CCC[C@H]1C(=O)N[C@@H](Cc1ccc(CN)cc1)C(=O)O [Compound 12, Lys(Har)-Dab-Pro-Phe(4-CH2-NH2)] (H-K(hArg)[Dab]P[Phe(4-CH2NH2)]-OH)"
7,8.4 ± 1.6,"N=C(N)NCCCC[C@H](N)C(=O)NCCCC[C@H](N)C(=O)N[C@@H](CN)C(=O)N1CCC[C@H]1C(=O)N[C@@H](CCCNC(=N)N)C(=O)O [Compound 1, Lys(Har)-Dap-Pro-Arg] (H-K(hArg)[Dap]PR-OH)"
8,22.8 ± 5.9,"N=C(N)NCCCC[C@H](N)C(=O)NCCCC[C@H](N)C(=O)N[C@@H](CN)C(=O)N1CCC[C@H]1C(=O)N[C@@H](Cc1ccc(CN)cc1)C(=O)O [Compound 11, Lys(Har)-Dap-Pro-Phe(4-CH2-NH2)] (H-K(hArg)[Dap]P[Phe(4-CH2NH2)]-OH)"
9,29.2 ± 1.8,"N=C(N)NCCCC[C@H](NC(=O)[C@@H]1CCCN1C(=O)[C@H](CN)NC(=O)[C@@H](N)CCCCNC(=O)[C@@H](N)CCCCNC(=N)N)C(=O)O [Compound 3, Lys(Har)-Dap-Pro-Har] (H-K(hArg)[Dap]P[hArg]-OH)"
10,148 ± 45.9,"N=C(N)NCCCC[C@H](N)C(=O)NCCCC[C@H](N)C(=O)N[C@@H](CN)C(=O)N1CCC[C@H]1C(=O)N[C@@H](CNC(=N)N)C(=O)O [Compound 7, Lys(Har)-Dap-Pro-Agp] (H-K(hArg)[Dap]P[Agp]-OH)"
11,106 ± 17.4,"N=C(N)NCCCC[C@H](N)C(=O)NCCCC[C@H](N)C(=O)N[C@@H](CCN)C(=O)N1CCC[C@H]1C(=O)N[C@@H](CCNC(=N)N)C(=O)O [Compound 6, Lys(Har)-Dab-Pro-Agb] (H-K(hArg)[Dab]P[Agb]-OH)"
12,87.5 ± 10.3,"N=C(N)NCCCC[C@H](N)C(=O)NCCCC[C@H](N)C(=O)N[C@@H](CN)C(=O)N1CCC[C@H]1C(=O)N[C@@H](CCNC(=N)N)C(=O)O [Compound 5, Lys(Har)-Dap-Pro-Agb] (H-K(hArg)[Dap]P[Agb]-OH)"
13,165 ± 21.1,"N=C(N)NCCCC[C@H](N)C(=O)NCCCC[C@H](N)C(=O)N[C@@H](CCN)C(=O)N1CCC[C@H]1C(=O)N[C@@H](CNC(=N)N)C(=O)O [Compound 8, Lys(Har)-Dab-Pro-Agp] (H-K(hArg)[Dab]P[Agp]-OH)"

# Tested on: not given
# Assay: not given
# Parameters: method as in Tymecka et al. [2018]
# Settings: ref Tymecka et al. [2018]; cited from earlier work
row,Compound,t½ (stability) [h]
1,"N=C(N)NCCCC[C@H](N)C(=O)NCCCC[C@H](N)C(=O)N[C@@H](CCN)C(=O)N1CCC[C@H]1C(=O)N[C@@H](CCCNC(=N)N)C(=O)O [Compound 2, Lys(Har)-Dab-Pro-Arg] (H-K(hArg)[Dab]PR-OH)",> 24
2,"N=C(N)NCCCC[C@H](N)C(=O)NCCCC[C@H](N)C(=O)N[C@@H](CN)C(=O)N1CCC[C@H]1C(=O)N[C@@H](CCCNC(=N)N)C(=O)O [Compound 1, Lys(Har)-Dap-Pro-Arg] (H-K(hArg)[Dap]PR-OH)",> 24

# Molecular target: NRP1-b1
# Assay: not given
# Parameters: method as in Mota et al. 2018
# Settings: SPR; ref Mota et al. 2018; cited from earlier work
row,Compound,Kd [µM]
1,"NC(N)=NCCC[C@H](NC(=O)OCc1ccccc1)C(=O)O [Compound D10, Nα-Cbz-Arg-OH]",17
2,"NC(N)=NCCC[C@H](NC(=O)c1ccccc1)C(=O)O [Compound D11, Nα-benzoyl-Arg-OH]",24
3,"CC(C)(C)OC(=O)N[C@@H](CCCN=C(N)N)C(=O)O [Compound D9, Nα-Boc-Arg-OH]",3

# Tested on: PAE/NRP1 cells
# Assay: not given
# Parameters: method as in Jarvis et al. 2010
# Settings: 100 μM; 125I-VEGF; ref Jarvis et al. 2010; cited from earlier work
row,Compound,inhibition at 100 μM [%]
1,Lys-Pro-Ala-Arg (KPAR; printed: Lys-Pro-Ala-Arg) [Compound D6],83
2,KPA[dR] [Compound D7],22
3,Lys-Pro-Ala-Lys (KPAK; printed: Lys-Pro-Ala-Lys) [Compound D8],22
4,NC(N)=NCCC[C@H](NC(=O)c1sccc1NS(=O)(=O)c1cccc2nsnc12)C(=O)O [Compound D12],99

# Same assay, conditions: 125I-VEGF; ref Jarvis et al. 2010; cited from earlier work
row,Compound,IC50 [µM]
1,Lys-Pro-Ala-Arg (KPAR; printed: Lys-Pro-Ala-Arg) [Compound D6],30
2,NC(N)=NCCC[C@H](NC(=O)c1sccc1NS(=O)(=O)c1cccc2nsnc12)C(=O)O [Compound D12],8
